The source of these data is patent US4532240A, “Diaminopyrimidines” (Warner-Lambert Company, priority 1983, dated 1985).

In one test the test system is P388 Leukemia. The test is described as follows: In vivo lymphocytic leukemia P388 test in mice. To be noted: intraperitoneal, two single doses four days apart. Further details: species or system CD2 F1 mice. On the procedure:
The in vivo lymphocytic leukemia P388 test is carried out using the test system of the United States National Cancer Institute. The animals used are either male or female CD2 F1 mice. There are six to seven animals per test group. The tumor transplant is by intraperitoneal injection of dilute ascitic fluid containing cells of lymphocytic leukemia P388. The test compounds are administered intraperitoneally in two single doses with a four-day interval between doses at various dose levels following tumor inoculation. The animals are weighed and survivors are recorded on a regular basis for 30 days. A ratio of survival time for treated (T)/control (C) animals is calculated. The criterion for efficacy is T/C×100>125%. The positive control compound in this test is 5-fluorouracil. See Cancer Chemotherapy Reports, Part 3, 3, 1 (1972) for a comprehensive discussion of the protocol.

Test [1] has as its system HCT-8 (human colon adenocarcinoma) cells. The test is described as follows: In vitro activity against HCT-8 human colon adenocarcinoma cells. It is filed as cell-based. To be noted: HCT-8, 60-65 hours with compound, 37° C., read-out: ID50 against human colon adenocarcinoma. On the procedure: HCT-8 (human colon adenocarcinoma) cells are trypsinized using Trypsin-EDTA. A single cell suspension is achieved by passing the cells through a 26 gauge needle with a 20 cc syringe. A cell suspension is prepared using RPMI 1640+10% FCS+50 μg/ml garamycin with a cell concentration of approximately 30,000 cells/ml. The cell suspension is dispensed in Linbro 24-well plates; 1 ml/well. The plates are incubated for approximately 48 hours at 37° C. in a 5% CO2 atmosphere. At this time test compounds are added in the appropriate concentration. Five μl of the 200 μg/ml stock solution is added to each well in a primary test. Ten μl of the appropriate dilution is added to each well for a titration test. The plates are reincubated an additional 60-65 hours at 37° C. in a 5% CO2 atmosphere. The test is read by lysing the cells using a mix of cationic surfactant, glacial acetic acid and sodium chloride. […] of the lysed cell suspension from each well is added to 8 ml of diluent. Each sample is read on the Coulter counter (ZBI model). The activity of each sample is measured as a percentage of the controls and the data is reported as ID50, that is the molar quantity of drug required to kill 50% of the tumor cells.

The next test relates to L1210 cells. The test is described as follows: In vitro antitumor screening on L1210 murine leukemia cell line (growth, Coulter counter). To be noted: Mus musculus, L1210, 72 h; three days, 37° C., 5% CO2; read-out: L1210 Leukemia in vitro ID50. It is filed as cell-based. On the procedure:
L1210 cells, a murine leukemia cell line, were grown in RPMI 1640 supplemented with 5% fetal bovine serum and gentamicin (50 μg/ml).
Drug dilutions were prepared in the appropriate solvent and 20 μl of each dilution were added to 24-well Linbro tissue culture plates, followed by the addition of M 2.0 ml of cell suspension containing 3×10^4cells per ml. Solvent and medium controls were included in each test. After incubation at 37° C. for three days in 5% CO2, the contents of each well were removed and the cells counted in a ZBI Coulter counter. Percent growth was calculated relative to the controls and the levels of drug activity were expressed as ID50 in moles per liter using probit paper.

The subject of the next test is M. faecalis. The test is described as follows: Antibacterial disk zone of inhibition, M. faecalis (as headed). The conditions noted are these: Enterococcus faecalis; 0.1 mg/ml; read-out: Inhibition Zone diameter. Format: cell-based, Streptococcus faecalis 05045. On the procedure:
(§1) Vegetative bacterial isolates are maintained on agar slants or in liquid media, hereby designated as inoculum media. The cultures are transferred at regular intervals in such media. (See Table IV for the corresponding inoculum media of each culture.) The organisms are generally transferred either onto agar slants or into liquid inoculum media and incubated at 37° C. (at 28° C. with Xanthomonas sp.) overnight (18-20 hours).
(§2) The microbial cells from the overnight agar slants are then scraped off and suspended in saline solution (0.85% NaCl). The microbial concentrations are adjusted to a light transmission of 8.6% using a PerkinElmer Model 35 spectrophotometer (550 nm). For the organisms that are maintained in liquid media, one of two procedures is followed: (1) the culture suspension is first centrifuged at 5000 rpm for five minutes. The pellet is resuspended in 0.85% saline to 8.6% light transmittancy; (2) an aliquot of the culture suspension is to be added directly to the assay medium.
(§3) A given molten-agar assay medium, maintained in a flask at approximately 45° C., is inoculated with 0.16-10 ml of an appropriate cell or spore suspension per 100 ml of medium. Fifty ml of the inoculated medium is poured into a Bio-Assay dish (A/S Nunc; Gibco Laboratories Catalog Number 240835) and spread evenly across the bottom, then allowed to solidify at room temperature. Each agar dish is inverted and refrigerated until used.
(§4) The compounds or samples to be tested are dissolved in suitable solvents, e.g., alcohols, dimethylsulfoxide, or N,N-dimethylformamide. The samples are generally dissolved so that the final concentration of the solvent is <10%.* The compounds are tested at different concentrations: 3,000; 1,000; 500; 100; and 10 mcg/ml. Paper discs (12.7 mm diameter) saturated with a given concentration of test compound are placed onto the seeded agar dishes with a pair of forceps.
(§5) The disked agar dishes are incubated at 37° C. (28° C. for Xanthamonas sp.) for 18-20 hours. Active compounds show a zone of inhibition around the disc. The diameter of the zone is measured in mm. The zone diameter of active compounds ranges from a minimum of 13.5 mm to as high as 60 mm. The size of the zone diameter generally reflects the activity of the compound: the larger the zone the greater the activity.

The next test deals with X. phaseoli. The experiment in a line: Antibacterial disk zone of inhibition, X. phaseoli. Format: cell-based, Xanthomonas phascoli 06002. The conditions noted are these: Xanthomonas; 3.0 mg/ml; read-out: Inhibition Zone diameter. On the procedure:
as §1, §2, §3, §4, §5

In a further test the test system is S. lutea. The test is described as follows: Antibacterial disk zone of inhibition, S. lutea (as headed). It is filed as cell-based, Micrococcus luteus 05064. To be noted: Micrococcus luteus; 1.0 mg/ml; read-out: Inhibition Zone diameter. On the procedure:
as §1, §2, §3, §4, §5

For the next test, the system named is B. catarrhalis. The experiment in a line: Antibacterial disk zone of inhibition, B. catarrhalis. It is filed as cell-based, Branhamella catarrhalis 03596. The conditions noted are these: Moraxella catarrhalis; 3.0 mg/ml; read-out: Inhibition Zone diameter. On the procedure:
as §1, §2, §3, §4, §5

The next test has as its system B. subtilis. The test is described as follows: Antibacterial disk zone of inhibition, B. subtilis. The conditions noted are these: Bacillus subtilis; 3.0 mg/ml; read-out: Inhibition Zone diameter. Format: cell-based, Bacillus subtilis 04555. On the procedure: as §1, §2
Isolate spore suspensions (Bacillus sp.) are maintained at 4° C. These suspensions serve as the inoculum media for assays.
as §3, §4, §5

“And” between values parts separate entries of the source, which are not always exact repeats. Equal entries are not always repeated. Structures can show the parent of a compound that is named as a salt.

Take `Cc1nc(N)nc(N)c1N1CCN(c2ccc(C(=O)N[C@@H](CCC(=O)O)C(=O)O)cc2)CC1` [Example 3, N-[4-[4-(2,4-diamino-6-methyl-5-pyrimidinyl)-1-piperazinyl]benzoyl]-L-glutamic acid]: the “T/C × 100” value with P388 Leukemia (6.25 mg/kg, listed as CH3, H, H, 4-CONHCH(CO2 H)CH2 CH2 CO2 H) was 144% and 137%; with P388 Leukemia (12.5 mg/kg, listed as CH3, H, H, 4-CONHCH(CO2 H)CH2 CH2 CO2 H) it was 155% and 168%; in the test on P388 Leukemia (25 mg/kg, listed as CH3, H, H, 4-CONHCH(CO2 H)CH2 CH2 CO2 H), 172% and 167%; in the test on P388 Leukemia (50 mg/kg) it was 222%; in the test with P388 Leukemia (50 mg/kg, listed as CH3, H, H, 4-CONHCH(CO2 H)CH2 CH2 CO2 H) it was 188%.
Consider `Cc1nc(N)nc(N)c1N1CCN(c2ccc([N+](=O)[O-])cc2)CC1` [Example 4, 6-Methyl-5-[4-(4-nitrophenyl)-1-piperazinyl]-2,4-pyrimidinediamine, hydrate (10:1)], for which the IC50 was more than 1000 nM in test [1] and 15 nM in the test with L1210 cells.
As for `Cc1nc(N)nc(N)c1N1CCN(c2ccccc2)CC1` [Example 20, 6-Methyl-5-(4-phenyl-1-piperazinyl)-2,4-pyrimidinediamine, hydrochloride (5:1)], the IC50 in the test on L1210 cells stood at 150 nM.
In the case of `CCCc1nc(N)nc(N)c1N1CCN(c2ccc(C(=O)NC(CCC(=O)O)C(=O)O)cc2)CC1` (centres unmarked) [drawing 24], the zone of inhibition at 100 µg/mL in the test with M. faecalis amounted to 16 mm. Moreover, the zone of inhibition at 3000 µg/mL was 0 mm with X. phaseoli, 18 mm with B. catarrhalis and 0 mm with B. subtilis. Also, in the test with S. lutea, the zone of inhibition at 1000 µg/mL is 16 mm.
On to `CCc1nc(N)nc(N)c1N1CCN(c2ccc(C(=O)NC(CCC(=O)O)C(=O)O)cc2)CC1` (centres unmarked) [drawing 16], for which the IC50 in test [1] is 120 nM.
Consider `CCOC(=O)CCC(NC(=O)c1ccc(N2CCN(c3c(N)nc(N)nc3CC)CC2)cc1)C(=O)OCC` (centres unmarked) [drawing 10], for which, in the test on L1210 cells, the IC50 was 3.2 nM.
Same read-out and setting: the figure for `Cc1nc(N)nc(N)c1N1CCN(c2ccc(N)cc2)CC1` [Example 22] is 80 nM.
For `Cc1nc(N)nc(N)c1N1CCN(c2ccc(C(=O)O)cc2)CC1.Cl` [Example 1, 4-[4-(2,4-Diamino-6-methyl-5-pyrimidinyl)-1-piperazinyl]benzoic acid hydrochloride], the “T/C × 100” value with P388 Leukemia (6.25 mg/kg, listed as CH3, H, H, 4-CO2 H, hydrochloride) is 141% and 146%; with P388 Leukemia (12.5 mg/kg, listed as CH3, H, H, 4-CO2 H, hydrochloride), 179% and 227%; in the test with P388 Leukemia (25 mg/kg) it was 137%; in the test on P388 Leukemia (50 mg/kg), 258%. The “survival rate after 30 days” value with P388 Leukemia (50 mg/kg) is on record as 3/6.
With `CCc1nc(N)nc(N)c1N1CCN(c2ccc(C(=O)NC(CCC(=O)O)C(=O)O)cc2)CC1` (centres unmarked) [drawing 11], the IC50 in the test with L1210 cells was found to be 2000 nM.
Turning to `COC(=O)CNC(=O)c1ccc(N2CCN(c3c(C)nc(N)nc3N)CC2)cc1` [Example 8, N-[4-[4-(2,4-Diamino-6-methyl-5-pyrimidinyl)-1-piperazinyl]benzoyl]glycine,methyl ester], the IC50 in test [1] was found to be 800 nM; in the test with L1210 cells, 17 nM.
As for `CCOC(=O)CCC(NC(=O)c1ccc(N2CCN(c3c(N)nc(N)nc3CC)CC2)cc1)C(=O)OCC` (centres unmarked) [drawing 19], the “T/C × 100” value with P388 Leukemia (6.25 mg/kg) worked out at 163%; with P388 Leukemia (12.5 mg/kg), 183%; in the test with P388 Leukemia (25 mg/kg), 241%; in the test on P388 Leukemia (50 mg/kg), 258%. Further, the “survival rate after 30 days” value in the test on P388 Leukemia (25 mg/kg) is 2/6; with P388 Leukemia (50 mg/kg), 5/6.
With `CCc1nc(N)nc(N)c1N1CCN(c2ccc(C#N)cc2)CC1` [Example 10, 5-[4-(4-cyanophenyl)-1-piperazinyl]-6-ethyl-2,4-pyrimidinediamine], the IC50 in test [1] was found to be 89 nM; in the test with L1210 cells it was 7.7 nM. Moreover, in the test with P388 Leukemia (50 mg/kg), the “T/C × 100” value came to 126%.
For the compound `CCCc1nc(N)nc(N)c1N1CCN(c2ccc(C#N)cc2)CC1` [Example 14, 5-[4-(4-cyanophenyl)-1-piperazinyl]-6-propyl-2,4-pyrimidinediamine], the values for the IC50 (in test [1]; with L1210 cells) were 120 nM and 8.9 nM, respectively.
For the compound `CCOC(=O)CCC(NC(=O)c1ccc(N2CCN(c3c(N)nc(N)nc3CC)CC2)cc1)C(=O)OCC` (centres unmarked) [drawing 15], in test [1], the IC50 was 26 nM.
The same measure, in the same setting: the figure for `CCCc1nc(N)nc(N)c1N1CCN(c2ccc(C(=O)NC(CCC(=O)O)C(=O)O)cc2)CC1` (centres unmarked) [drawing 17] is 85 nM.
In the case of `CNC(=O)c1ccc(N2CCN(c3c(C)nc(N)nc3N)CC2)cc1` [Example 7, 4-[4-(2,4-Diamino-6-methyl-5-pyrimidinyl)-1-piperazinyl]-N-methyl benzamide, hydrate (100:45)], the IC50 in test [1] turned out to be 67 nM; with L1210 cells it was 2.5 nM.
`CCOC(=O)c1ccc(N2CCN(c3c(C)nc(N)nc3N)CC2)cc1` [Example 6, 4-[4-(2,4-Diamino-6-methyl-5-pyrimidinyl)-1-piperazinyl]benzoic acid, ethyl ester]: the IC50 was determined as 49 nM in test [1] and 5 nM in the test with L1210 cells.
As to `Cc1nc(N)nc(N)c1N1CCN(c2ccc(Cl)cc2)CC1` [Example 21, 5-[4-(4-chlorophenyl)-1-piperazinyl]-6-methyl-2,4-pyrimidinediamine], the IC50 in test [1] worked out at 350 nM; in the test on L1210 cells, 28 nM.
As to `CCCc1nc(N)nc(N)c1N1CCN(c2ccc(C(=O)NC(CCC(=O)O)C(=O)O)cc2)CC1` (centres unmarked) [drawing 13], the IC50 in the test with L1210 cells stood at 7.5 nM.
